Drawing on patent publication US20240122179A1, “AUXINIC HERBICIDES AND METHODS OF USE THEREOF” (CORTEVA AGRISCIENCE LLC, priority 2021, published 2024), this text covers pest or weed control and plant injury for 7 compounds.

The test system of one assay is Amaranthus rudis (AMATA). Kind of assay: Postemergence herbicide evaluation, percent reduction in plant size vs untreated control, 21 days after treatment. Type of assay: in vivo, Amaranthus rudis (tall water hemp). To be noted: Amaranthus tuberculatus, post-emergence, 504 h, read-out: Control/Injury. The procedure, abridged:
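Greenhouse-grown tall waterhemp (25-28° C, 16 h light) at the 2-8 leaf stage, treated by track sprayer at 187 L/ha with compound at 140 or 280 g ae/ha in acetone/DMSO-based spray solution with crop oil and surfactant. 3-4 replicates per treatment, randomized complete block; plant size reduction versus untreated control measured 21 days after treatment.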

For assay [1], the system named is Ambrosia artemisiifolia (AMBEL). Described as above. Type of assay: in vivo, Ambrosia artemisiifolia (common ragweed). To be noted: post-emergence, 504 h, read-out: Control/Injury. The procedure, abridged:
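Greenhouse-grown plants (25–28 °C, 16 h light) were sprayed postemergence at the 2–8 leaf stage with 140 or 280 g ae/ha in acetone/DMSO-based spray solution with crop oil and surfactant, at 187 L/ha by track sprayer. There were 3–4 replicates. Plant size was measured 21 days after treatment versus untreated plants.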

For the next assay, the system named is Kochia scoparia (KCHSC). Described as above. To be noted: Bassia scoparia, post-emergence, 504 h, read-out: Control/Injury. It counts as in vivo. The procedure, abridged: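 Greenhouse-grown plants (25-28 °C, 16 h light) at the 2 to 8 leaf stage were track-sprayed postemergence at 140 or 280 g ae/ha in acetone/DMSO-based spray solution with crop oil and surfactant, at 187 L/ha, in 3-4 randomized replicates.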

Assay [2] relates to Amaranthus palmeri (AMAPA). The description is as above. Type of assay: in vivo, Amaranthus palmeri (Palmer amaranth). The settings on record: post-emergence, 504 h, read-out: Control/Injury. The procedure, abridged: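 Greenhouse-grown Palmer amaranth (25 to 28° C, 16 h light) sprayed postemergence at the 2 to 8 leaf stage with 140 or 280 g ae/ha in acetone/DMSO-based solution containing crop oil concentrate, 187 L/ha by track sprayer. Three to four replicates; plant size measured 21 days after treatment as percent reduction versus untreated control.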

For assay [3], the system named is Conyza canadensis (L.) (ERICA). The assay is described as above. It counts as in vivo, Conyza canadensis (L.) (Horseweed). To be noted: Erigeron canadensis, post-emergence, 504 h, read-out: Control/Injury. The procedure, abridged:
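Horseshoe-weed (horseweed) seedlings at 2 to 8 leaf stage in greenhouse (25-28° C, 16 h light), sprayed postemergence at 140 or 280 g ae/ha in acetone/DMSO-based spray solution, 187 L/ha track-sprayer. Randomized complete block, 3-4 replicates; plant size measured 21 days after treatment as percent reduction vs untreated controls.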

Another assay deals with Glycine max. Kind of assay: whole plant or invertebrate. To be noted: Glycine max, post-emergence, 504 h, read-out: Control/Injury. As to the method:
Plants were grown in a soil media composed of 90% by volume Promix BX (Premier Tech Horticulture, Quakertown, PA) and 10% Profile Greens Grade (Profile Products LLC, Buffalo Grove, IL). Promix BX contains approximately 83% Sphagnum Peat Moss, 13% Perlite, 5% vermiculite, and proprietary amounts of limestone, starter fertilizer, and wetting agent. Profile Greens Grade is a sand-sized granule formed from calcining illite and montmorillonite clay. Several seeds of each species were planted in 10 cm square pots and top watered twice daily. Plant material was propagated in a warm greenhouse with temperature ranging from 25 to 28° C. and 50 to 60% relative humidity at the Corteva Global Headquarters (Indianapolis, Indiana, USA). Natural light was supplemented with 1000-watt metal halide overhead lamps with an average illumination of 500 μE m^−2 s^−1 photosynthetic active radiation for 16 consecutive hours each day. Plants were top-watered prior to herbicide application and sub-watered after herbicide application.
Appropriate amounts of test materials were weighed out into glass vials in their technical form to deliver either 140 or 280 g acid equivalent (ae)/ha. The samples were dissolved in 3 ml of Solvent 1. Solvent 1 is 97% acetone and 3% dimethyl sulfoxide and serves as a general-purpose solvent (GPS) for dissolving technical materials. […] The samples were then diluted to their final concentration using 17 ml of solvent 2 for a total of 20 ml of spray solution. Solvent 2 contains 41.58% GPS, 45.53% water, 11.88% isopropyl alcohol, 0.99% crop oil concentrate and 0.02% Trition X-155 surfactant. All percentages are listed on a volume basis. Dicamba diglycolamine was applied as a formulated herbicide, Clarity™ and diluted with solvent 2 to compare all materials in the same spray solution.
Herbicide applications were made to 3 to 4 replicates of each plant species at the 2 to 8 leaf stage, depending on the species. Treatments were applied with a research track-sprayer (Generation III Research Sprayer manufactured by DeVries Manufacturing in Hollandale, MN, USA) calibrated to deliver a spray volume of 187 L/ha. The track-sprayer was fitted with an 8003E nozzle from Spray Systems Company (North Avenue and Schmale Road, P.O. Box 7900, Wheaton, IL 60187), and used a spray pressure of 276 kPa pressure and a speed of 3.1 km/h. The nozzle height was 46 cm above the plant canopy. The experimental design used for the trials was a randomized complete block with 3 or 4 replications per treatment. After application, plants were placed on carts according to the randomization and returned to the greenhouse. Plants were sub-watered after treatment with Indianapolis city water or fertilized three times a week with a commercial fertilizer solution (Jack's Professional 15-5-15 4 Ca 2 Mg fertilizer (manufactured by JR PETERS INC., 6656 Grant Way, Allentown, PA 18106; www.jrpeters.com). Percent visual control assessments were made on a scale of 0 to 100% (where 0 was no control and 100 was complete plant death) at 7, 14, and 21 days after treatment.
In conformity with the methods outlined in Example 49, the effect of representative experimental compounds on the growth of Glycine max was determined at 2 different levels (respectively, 140 and 280 g acid equivalent (ae)/ha) of the experimental actives tested. Plants were treated with one of the compounds, a control plant was not treated. Twenty-one days after treatment, the plants were measured. The data is present as a percent reduction in plant size relative to the untreated control.

The mark [4] stands for this setting: AMATA, rate 140 g ae/ha, postemergence.
Setting [5] is: AMATA, rate 280 g ae/ha, postemergence.
The mark [6] stands for this setting: AMBEL, rate 140 g ae/ha, postemergence.
Setting [7] is: AMBEL, rate 280 g ae/ha, postemergence.
[8] abbreviates: KCHSC, rate 280 g ae/ha, postemergence, percent reduction vs untreated control, 21 days after treatment.
Where [9] appears, read: R-AMAPA, rate 140 g ae/ha, postemergence, percent reduction vs untreated control, 21 days after treatment.
Setting [10] is: R-AMAPA, rate 280 g ae/ha, postemergence, percent reduction vs untreated control, 21 days after treatment.
The mark [11] stands for this setting: ERICA, rate 140 g ae/ha, postemergence, percent reduction vs untreated control, 21 days after treatment.
The mark [12] stands for this setting: ERICA, rate 280 g ae/ha, postemergence, percent reduction vs untreated control, 21 days after treatment.
Setting [13] is: KCHSC, rate 140 g ae/ha, postemergence, percent reduction vs untreated control, 21 days after treatment.

Molecules are shown by their SMILES. Like-named read-outs stand apart in the source and are kept apart here.

Consider `COc1c(Cl)ccc(Cl)c1C(=O)NS(=O)(=O)c1ccc(C)cc1` [Compound A-78], for which the pest or weed control at 140 g/ha with Amaranthus rudis (AMATA) (setting [4]) turned out to be 12%; in assay [1] (setting [6]), 45%; in the assay on Kochia scoparia (KCHSC) (KCHSC, rate 140 g ae/ha, postemergence), 50%; in assay [2] (setting [9]), 23%; in assay [3] (setting [11]) it was 5%. In addition, the pest or weed control at 280 g/ha in the assay with Amaranthus rudis (AMATA) (setting [5]) was found to be 20%; in assay [1] (setting [7]) it was 57%; in the assay with Kochia scoparia (KCHSC) (setting [8]), 85%; in assay [2] (setting [10]), 32%; in assay [3] (setting [12]), 15%. In addition, the plant injury at 140 g/ha in the assay with Glycine max was 25%. For the same compound, the plant injury at 280 g/ha with Glycine max worked out at 67%.

For the compound `COc1c(Cl)ccc(Cl)c1C(=O)NS(=O)(=O)c1nccn1C` [Compound A-79], the pest or weed control at 140 g/ha was found to be 7% in the assay with Amaranthus rudis (AMATA) (setting [4]); 15% in assay [1] (setting [6]); 0% with Kochia scoparia (KCHSC) (setting [13]); 13% in assay [2] (setting [9]); 0% in assay [3] (setting [11]). Also, the pest or weed control at 280 g/ha is 13% with Amaranthus rudis (AMATA) (setting [5]); 22% in assay [1] (setting [7]); 3% in the assay with Kochia scoparia (KCHSC) (setting [8]); 10% in assay [2] (setting [10]); 2% in assay [3] (setting [12]). The plant injury at 140 g/ha in the assay on Glycine max is 6%. The plant injury at 280 g/ha in the assay on Glycine max turned out to be 3%.

As for `CCCCCC(=O)NOC(=O)c1c(Cl)ccc(Cl)c1OC` [Compound A-80], the pest or weed control at 140 g/ha in the assay with Amaranthus rudis (AMATA) (setting [4]) came to 33%; in assay [1] (setting [6]), 63%; in the assay with Kochia scoparia (KCHSC) (setting [13]), 13%; in assay [2] (setting [9]) it was 20%; in assay [3] (setting [11]), 20%. For the same compound, the pest or weed control at 280 g/ha with Amaranthus rudis (AMATA) (setting [5]) came to 38%; in assay [1] (setting [7]), 62%; in the assay on Kochia scoparia (KCHSC) (setting [8]) it was 22%; in assay [2] (setting [10]), 35%; in assay [3] (setting [12]) it was 23%. Further, the plant injury at 140 g/ha with Glycine max was determined as 2%. In addition, the plant injury at 280 g/ha in the assay with Glycine max stood at 4%.

Regarding `COc1c(Cl)ccc(Cl)c1C(=O)O/N=C/c1cccnc1` [Compound A-81], the pest or weed control at 140 g/ha in the assay on Amaranthus rudis (AMATA) (setting [4]) stood at 3%; in assay [1] (setting [6]) it was 15%; in the assay on Kochia scoparia (KCHSC) (setting [13]), 2%; in assay [2] (setting [9]), 17%; in assay [3] (setting [11]) it was 0%. For the same compound, the pest or weed control at 280 g/ha worked out at 8% in the assay on Amaranthus rudis (AMATA) (setting [5]); 27% in assay [1] (setting [7]); 7% in the assay with Kochia scoparia (KCHSC) (setting [8]); 15% in assay [2] (setting [10]); 7% in assay [3] (setting [12]). Further, the plant injury at 140 g/ha with Glycine max turned out to be 19%. The plant injury at 280 g/ha with Glycine max was found to be 20%.

As to `COc1c(Cl)ccc(Cl)c1C(=O)O/N=C(\C)C(C)(C)C` [Compound A-82], the pest or weed control at 140 g/ha in the assay on Amaranthus rudis (AMATA) (setting [4]) is 78%; in assay [1] (setting [6]), 90%; in the assay on Kochia scoparia (KCHSC) (setting [13]) it was 98%; in assay [2] (setting [9]), 85%; in assay [3] (setting [11]), 91%. Moreover, the pest or weed control at 280 g/ha with Amaranthus rudis (AMATA) (setting [5]) is 72%; in assay [1] (setting [7]) it was 88%; in the assay with Kochia scoparia (KCHSC) (setting [8]) it was 88%; in assay [2] (setting [10]), 83%; in assay [3] (setting [12]) it was 96%. Moreover, in the assay on Glycine max, the plant injury at 140 g/ha stood at 27%. Further, the plant injury at 280 g/ha in the assay with Glycine max worked out at 7%.

Consider `CO/C(=N\OC(=O)c1c(Cl)ccc(Cl)c1OC)c1ccccc1` [Compound A-83], for which the pest or weed control at 140 g/ha in the assay with Amaranthus rudis (AMATA) (setting [4]) is 65%; in assay [1] (setting [6]), 93%; with Kochia scoparia (KCHSC) (setting [13]), 85%; in assay [2] (setting [9]), 70%; in assay [3] (setting [11]), 90%. The pest or weed control at 280 g/ha in the assay with Amaranthus rudis (AMATA) (setting [5]) was determined as 65%; in assay [1] (setting [7]), 87%; in the assay with Kochia scoparia (KCHSC) (setting [8]), 94%; in assay [2] (setting [10]) it was 83%; in assay [3] (setting [12]), 97%. Also, the plant injury at 140 g/ha with Glycine max was found to be 22%. Besides, the plant injury at 280 g/ha in the assay on Glycine max stood at 15%.

Consider `COc1c(Cl)ccc(Cl)c1C(=O)O/N=C(\C#N)c1ccccc1` [Compound A-84], for which the pest or weed control at 140 g/ha in the assay on Amaranthus rudis (AMATA) came out at 17%; in assay [1] it was 70%; in the assay on Kochia scoparia (KCHSC) it was 68%; in assay [2], 33%; in assay [3], 37%. The pest or weed control at 280 g/ha with Amaranthus rudis (AMATA) is 27%; in assay [1], 78%; with Kochia scoparia (KCHSC), 85%; in assay [2], 28%; in assay [3], 78%. The plant injury at 140 g/ha with Glycine max came to 8%. The plant injury at 280 g/ha in the assay on Glycine max worked out at 38%.
